In assay [1] the target is Dual specificity tyrosine-phosphorylation-regulated kinase 1A (Homo sapiens, UniProt Q13627). Description: Inhibition of recombinant DYRK1A (unknown origin) using Ser/Thr 18 peptide as substrate incubated for 1 hr in presence of ATP by FRET assay.
Assay [2] can be described thus: Induction of chondrogenesis in human MSC assessed as maximum activity at 10 nM incubated for 6 days by rhodamine B and Nile red staining based imaging analysis relative to control. In kind it is functional. The conditions noted are these: BMMSC, 144 h, time 6 day.
Assay [3] is described as follows: Induction of chondrogenesis in human MSC assessed as incubated for 6 days by rhodamine B and Nile red staining based imaging analysis. Conditions: bmmsc. Format: functional.
A short description of assay [4]: Effect on Wnt signaling pathway in human SW480 cells harbouring TCF/LEF luciferase reporter gene and SP5-Luc reporter gene incubated for 36 to 48 hrs by luminescence assay. Format: cell-based. (A reporter such as luciferase makes a cellular process visible.)

The structures appear in SMILES notation.

A word on the EC50: it is the concentration at which the effect is half-maximal. The term Emax denotes the size of the effect at its maximum, as opposed to the concentration needed. For the molecule `CCNCc1cncc(-c2ccc3[nH]nc(-c4cc5ccccc5[nH]4)c3c2)c1`, the concentration for a half-maximal effect (EC50) in assay [1] was 11 nM; in assay [3], 10 nM; in assay [4], 395 nM. The Emax at 0.01 µM in assay [2] turned out to be 532%.
As for `CC(C)C(=O)Nc1cncc(-c2cc3c(-c4cc5c(-c6cc(F)cc(CNS(C)(=O)=O)c6)nccc5[nH]4)n[nH]c3cn2)c1`, the EC50 in assay [1] is 27 nM; in assay [3], 30 nM; in assay [4], more than 10000 nM. Moreover, the Emax at 0.01 µM in assay [2] was 79.5%.
As for `O=C(Nc1cncc(-c2ccc3[nH]nc(-c4nc5c(-c6ccccc6F)ccnc5[nH]4)c3n2)c1)C(F)(F)F`, the EC50 was 86 nM in assay [1], 10 nM in assay [3] and more than 10000 nM in assay [4]. In addition, the maximal effect (Emax) at 0.01 µM in assay [2] was determined as 74%.
`CS(=O)(=O)NCc1cc(F)cc(-c2nccc3[nH]c(-c4n[nH]c5ccc(-c6cncc(NC(=O)Cc7ccccc7)c6)nc45)cc23)c1`: the EC50 in assay [1] is 100 nM; in assay [3] it was 10 nM; in assay [4] it was more than 10000 nM. For the same molecule, the Emax at 0.01 µM in assay [2] worked out at 110%.
Turning to `CC(C)Nc1cncc(-c2ccc3[nH]nc(-c4nc5c(-c6cccnc6)nccc5[nH]4)c3n2)c1`, the figures for the EC50 in assay [1], in assay [3] and in assay [4] were 14 nM, 10 nM and 981 nM, respectively. Further, in assay [2], the maximal effect (Emax) at 0.01 µM was found to be 54.4%.
Regarding `Cc1ccc(-c2nccc3[nH]c(-c4n[nH]c5ccc(-c6cncc(N)c6)cc45)nc23)s1`, the figures for the EC50 in assay [1], in assay [3] and in assay [4] were 58 nM, 2700 nM and 1.9 nM, respectively. Moreover, in assay [2], the Emax at 0.01 µM came to 163%.
Turning to `CN(C)Cc1cncc(-c2ccc3[nH]nc(-c4cc5c(-c6cccc(F)c6)cncc5[nH]4)c3c2)c1`, the EC50 in assay [1] was 43 nM; in assay [3] it was 10 nM; in assay [4], 1280 nM. In addition, the Emax at 0.01 µM in assay [2] was 193%.
On to `c1csc(-c2nccc3[nH]c(-c4n[nH]c5cnc(-c6cncc(CN7CCCCC7)c6)cc45)cc23)c1`, for which the EC50 in assay [1] was 31 nM; in assay [3] it was 10 nM; in assay [4] it was 3680 nM. For the same molecule, in assay [2], the Emax at 0.01 µM came out at 59%.
Regarding `CS(=O)(=O)NCc1cc(F)cc(-c2cncc3[nH]c(-c4n[nH]c5ccc(-c6cncc(NC(=O)C7CC7)c6)nc45)cc23)c1`, the concentration giving a half-maximal response (EC50) came out at 53 nM in assay [1], 10 nM in assay [3] and 1300 nM in assay [4]. In addition, the Emax at 0.01 µM in assay [2] came to 82.9%.
In the case of `CCCCC(=O)Nc1cncc(-c2cc3c(-c4cc5c(-c6cccnc6)ccnc5[nH]4)n[nH]c3cn2)c1`, the EC50 in assay [1] is 29 nM; in assay [3], 10 nM; in assay [4], more than 10000 nM. In addition, the maximal response (Emax) at 0.01 µM in assay [2] stood at 52.8%.
Turning to `O=C(Nc1cncc(-c2ccc3[nH]nc(-c4nc5c(-c6ccc(Cl)s6)cncc5[nH]4)c3n2)c1)C1CCC1`, the 50% effective concentration (EC50) was determined as 72 nM in assay [1], 30 nM in assay [3] and 800 nM in assay [4]. In assay [2], the Emax at 0.01 µM is 67.9%.
`CCCCC(=O)Nc1cncc(-c2ccc3[nH]nc(-c4nc5c(-c6ccoc6)cncc5[nH]4)c3n2)c1`: the EC50 is 92 nM in assay [1], 10 nM in assay [3] and more than 10000 nM in assay [4]. Besides, in assay [2], the maximal effect (Emax) at 0.01 µM amounted to 73.6%.
`CC(C)CC(=O)Nc1cncc(-c2ccc3[nH]nc(-c4nc5c(-c6ccc(Cl)s6)cncc5[nH]4)c3n2)c1`: the EC50 in assay [1] was determined as 72 nM; in assay [3], 10 nM; in assay [4], 1480 nM. In addition, the Emax at 0.01 µM in assay [2] stood at 60.6%.
With `Nc1cncc(-c2ccc3[nH]nc(-c4nc5c(-c6ccccc6F)cccc5[nH]4)c3n2)c1`, the EC50 in assay [1] came out at 40 nM; in assay [3], 30 nM; in assay [4], 1070 nM. Moreover, in assay [2], the Emax at 0.01 µM worked out at 81.8%.
Turning to `CC(C)Nc1cncc(-c2ccc3[nH]nc(-c4cc5c(-c6cccnc6)cccc5[nH]4)c3c2)c1`, the values for the EC50 in assay [1], in assay [3] and in assay [4] were 83 nM, 10 nM and 100 nM, respectively. In assay [2], the Emax at 0.01 µM turned out to be 226%.
For `Fc1ccc(-c2nccc3[nH]c(-c4n[nH]c5cnc(-c6cncc(CN7CCC(F)(F)C7)c6)cc45)cc23)cc1`, in that order: 10 nM, 10 nM, 291 nM and 61.2%.
Regarding `CN1CCN(c2cncc3[nH]c(-c4n[nH]c5ccc(-c6cncc(N)c6)nc45)nc23)CC1`, the results for the EC50 in assay [1], in assay [3] and in assay [4] were 9 nM, 30 nM and more than 10000 nM, respectively. For the same molecule, the Emax at 0.01 µM in assay [2] worked out at 64.6%.
On to `Cc1ccncc1-c1cnc2[nH]nc(-c3nc4c(-c5cc(F)cc(CNS(C)(=O)=O)c5)nccc4[nH]3)c2c1`, for which the concentration for a half-maximal effect (EC50) in assay [1] was 84 nM; in assay [3], 10 nM; in assay [4] it was 124 nM. Also, the Emax at 0.01 µM in assay [2] is 92.8%.
As for `CCC(=O)Nc1cncc(-c2cnc3[nH]nc(-c4cc5c(-c6cccnc6)cccc5[nH]4)c3c2)c1`, the values for the half-maximal effective concentration (EC50) in assay [1], in assay [3] and in assay [4] were 13 nM, 10 nM and 180 nM, respectively. Moreover, the Emax at 0.01 µM in assay [2] stood at 671%.
For `CCCCC(=O)Nc1cncc(-c2ccc3[nH]nc(-c4nc5c(-c6cc(F)cc(NCCN(C)C)c6)ccnc5[nH]4)c3n2)c1`, in that order: 18 nM, 10 nM, more than 10000 nM and 71.4%.
Regarding `c1cncc(-c2cc3c(-c4cc5cnccc5[nH]4)n[nH]c3cn2)c1`, the EC50 in assay [1] was found to be 2 nM; in assay [3], 30 nM; in assay [4], 133 nM. For the same molecule, the Emax at 0.01 µM in assay [2] amounted to 62%.
In the case of `Cc1cn(-c2nccc3[nH]c(-c4n[nH]c5ccc(-c6cncc(NC(=O)C(C)(C)C)c6)nc45)nc23)cn1`, the values for the EC50 in assay [1], in assay [3] and in assay [4] were 39 nM, 30 nM and more than 10000 nM, respectively. Further, in assay [2], the Emax at 0.01 µM stood at 69.7%.
In the same order, the values of `CC(C)(C)CC(=O)Nc1cncc(-c2ccc3[nH]nc(-c4nc5ccncc5[nH]4)c3n2)c1` are 21 nM, 10 nM, more than 10000 nM and 54.1%.
With `CN(C)Cc1cncc(-c2ccc3[nH]nc(-c4cc5c(-c6ccccc6F)cncc5[nH]4)c3n2)c1`, the figures for the EC50 in assay [1], in assay [3] and in assay [4] were 69 nM, 30 nM and 1370 nM, respectively. For the same molecule, the Emax at 0.01 µM in assay [2] was 50.6%.
For the molecule `CS(=O)(=O)NCc1cc(F)cc(-c2nccc3[nH]c(-c4n[nH]c5ccc(-c6cncc(CN7CCCCC7)c6)nc45)cc23)c1`, the results for the EC50 in assay [1], in assay [3] and in assay [4] were 68 nM, 10 nM and 1100 nM, respectively. Further, the Emax at 0.01 µM in assay [2] was determined as 50.1%.
Take `CN(C)Cc1cncc(-c2cc3c(-c4cc5c(-c6cccc(F)c6)nccc5[nH]4)n[nH]c3cn2)c1`: the EC50 in assay [1] was determined as 54 nM; in assay [3] it was 30 nM; in assay [4], 1850 nM. Further, the Emax at 0.01 µM in assay [2] was found to be 60%.
Take `CC(C)Oc1ccc(NC(=O)c2n[nH]c3ccc(-c4cncc(CN5CCCCC5)c4)cc23)cn1`: the EC50 in assay [1] turned out to be 17 nM; in assay [3], 10 nM; in assay [4], 41 nM. Also, in assay [2], the Emax at 0.01 µM came to 51.9%.
Turning to `CCCCC(=O)Nc1cncc(-c2ccc3[nH]nc(-c4nc5c(-c6cc(F)cc(NCCN(C)C)c6)cncc5[nH]4)c3n2)c1`, the values for the EC50 in assay [1], in assay [3] and in assay [4] were 55 nM, 10 nM and more than 10000 nM, respectively. Besides, the Emax at 0.01 µM in assay [2] worked out at 64.7%.

For the origin of these results see ChEMBL document CHEMBL4739717, “Methods of treating cartilage disorders through inhibition of clk and dyrk” (2020).
